Data: patent US11179452B2, “Antigen specific multi epitope vaccines” (priority 2006, dated 2021)
No end group written: not given here.

Assays:
[1] = system: T-Cell specific subpopulation (Clones); experiment: ELISA of cytokine secretion by the T-cell specific subpopulation (clones) stimulated with peptides; type: cell-based, human; settings: two experiments, four donors
From the text: Thawed PBLs underwent 1st stimulation with ImMucin pulsed Autologues DC at a ratio of 20:1 and cultured for 7 days in dedicated T cell Medium. T cell medium contained RPMI medium supplemented with 10% FCS, L-Glutamine, Sodium Pyruvate, MEM-EAGLE non-essential amino-acids, HEPES and Gentamycin Sulphate (Bet-Haemek Industries, IL) as well as with 50 IU/ml of recombinant IL-7 (Cytolab IL). For the second stimulation, PBL were transferred to adherent autologues ImMucin-pulsed PBMC and cultured for additional 5 days in T cell Medium. At the end of the 5 days, medium was partial replaced with fresh medium containing 1 ug/ml of ImMucin and 50 IU/ml IL-2 for a third stimulation of 48 h at 37° C. Following the last stimulation ImMucin T cell line was checked for immune activation properties.
Cytokine release was studied during the culture of stimulated T-cells. The evaluated samples were collected from the T cell culture medium on day 2, 3, and 5 and stored until use at −20° C.
[…] of the selected capture antibody (e.g. anti-Hu IFN-Gamma, or anti-Hu TNF-alfa or anti IL-2) were added to each well at the final concentration of 5 μg/ml in PBS. Plates were incubated for 2 h at R.T. or over night at 4° C. Next, […] of blocking solution were added for an incubation of 2 h at R.T. […] of evaluated samples were added in duplicate into 2 wells for 2 hours at RT. After 2 h of incubation at R.T plates were washed λ4 times in washing solution. In the next step, a Biotin-conjugated detection antibody (relevant to coated antibody) was added at a final concentration of 10 μg/ml in total volume of 100 μl for 1 h at R.T. Finally, 100 μl/well working dilution (1:10000 in Blocker solution) of Streptavidin-HRP were added to each well and incubated for 1 h at R.T.
Plates were washed λ6 times with PBS-Tween (0.4%) and 100 μl/well of TMB/E Solution (CHEMICON, Catalog #ES001) was added. The plates were then exposed until blue color appeared in the wells of the positive control and no color was detected in the blank wells. To stop the color reaction, 50 μl/well of 10% of Sulfuric acid was added. The plates were counted in ELISA-Reader using a 450 nm filter.
For that purpose, an enriched ImMucin-specific T cell subpopulation was produced via repeated stimulation with ImMucin. The specificity of the subpopulation for ImMucin, as well as to the other VXL epitopes, was examined using proliferation assays, cytokine release assays, FACS analysis in which the percentage and type of cells enriched during the enrichment process was analyzed, and using a CTL assay against selected target cells.
For producing the specific T cell subpopulation PBL were stimulated three times for 7, 5 and 2 days with ImMucin presented via DC and PBMC. Following the 3rd stimulation the cells were evaluated against the different VXL epitopes.

MDA-MB-231 = experiment: In vitro cytotoxic assay (CTL) of ImMucin-stimulated HLA-A2.1 positive T-cell clone; type: cell-based; settings: MDA-MB-231 Human Brest Carcinoma, MUC1 +++, ratio 1:50
Method: Effector cells were ImMucin specific enriched T-Cell clone. Viable lymphocytes (effector cells), were centrifugation, resuspended in RPMI-HEPES medium, and admixed at different ratios with 5×10^3 35S methionine-labeled, tumor cells. CTL assays were performed in U-shaped microtiter wells, at 37° C., 5% CO2 for 5 hours. Cultures were terminated by centrifugation at 1000 rpm for 10 min at […]. A total of 100 µl of the supernatants was mixed with scintillation fluid and measured in a □□ counter (Becton Dickinson Canberra Australia). Percentage of specific lysis was calculated as follows: % lysis=(cpm in experimental well−cpm spontaneous release)/(cpm maximal release−cpm spontaneous release)×100. Spontaneous release was determined by incubation of 100 µl-labeled target cells with 100 µl of medium. Maximal release was determined by lysis of target cells in 100 µl 10% TrytonX-100.
In order to further evaluate the class II/class I cross presentation as well as the specificity and function of the T-cell clones, their class I restricted lysis potential was analyzed. For this assay the clones were screened for Class I HLA-A2.1 expression and their potential to lyse MUC1 and HLA-A2.1 positive and negative cell-lines was evaluated. […] The results summarized in Table 10 show a MUC1 as well as HLA-A2.1-restricted lysis. A breast tumor cell such as MDA-MB-231 which expresses both MUC1 and HLA-A2.1 was lysed effectively (23%), while another breast tumor cell line MDA-MB-468 which expresses only MUC1 but not the HLA-2.1 was not lysed al all. Other control cell-lines didn't manifest any lysis (see table 10).

## MTPGTQSPFFLLLLLTVLTVV [ImMucin]
[1]
  IL-2 % of clones: 83%
  INF-gamma % of clones: 90%
  TNF-Alfa % of clones: 90%
  TNF-Alfa Range: 2.7 to 8.9 ng/mL
MDA-MB-231
  Lysis % (1:50): 23%
